Consider eleven compounds from US8664228B2, “3,5-diamino-6-chloro-pyrazine-2-carboxylic acid derivatives and their use as epithelial sodium channel blockers for the treatment of airway diseases” (Novartis AG, priority 2008, dated 2014).

Counter-ions that a name gives are not always drawn.

The experiment has as its target T1, epithelial sodium channel (ENaC) (Homo sapiens, UniProt P37088+P51168+P51170).
T1 construct: host or cells: primary human bronchial epithelial cells (HBECs), air-liquid interface culture
T1 sequence (P37088 1-669): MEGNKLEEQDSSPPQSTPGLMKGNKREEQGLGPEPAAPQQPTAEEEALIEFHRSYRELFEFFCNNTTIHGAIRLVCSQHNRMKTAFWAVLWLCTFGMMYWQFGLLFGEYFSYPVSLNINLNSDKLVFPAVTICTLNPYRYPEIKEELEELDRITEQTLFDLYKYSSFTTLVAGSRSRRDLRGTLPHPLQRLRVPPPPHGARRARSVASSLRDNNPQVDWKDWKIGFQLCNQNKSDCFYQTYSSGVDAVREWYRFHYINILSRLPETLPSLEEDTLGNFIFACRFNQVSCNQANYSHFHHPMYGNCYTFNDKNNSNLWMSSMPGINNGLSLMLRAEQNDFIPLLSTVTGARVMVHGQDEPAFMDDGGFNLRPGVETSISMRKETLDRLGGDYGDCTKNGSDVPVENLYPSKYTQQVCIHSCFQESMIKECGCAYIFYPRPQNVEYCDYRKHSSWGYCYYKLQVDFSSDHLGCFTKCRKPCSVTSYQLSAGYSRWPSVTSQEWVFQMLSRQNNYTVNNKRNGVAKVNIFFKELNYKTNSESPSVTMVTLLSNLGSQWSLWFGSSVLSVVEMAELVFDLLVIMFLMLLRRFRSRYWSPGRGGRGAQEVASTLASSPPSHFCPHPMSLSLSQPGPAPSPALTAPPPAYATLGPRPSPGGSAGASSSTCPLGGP
T1 sequence (P51168 1-640): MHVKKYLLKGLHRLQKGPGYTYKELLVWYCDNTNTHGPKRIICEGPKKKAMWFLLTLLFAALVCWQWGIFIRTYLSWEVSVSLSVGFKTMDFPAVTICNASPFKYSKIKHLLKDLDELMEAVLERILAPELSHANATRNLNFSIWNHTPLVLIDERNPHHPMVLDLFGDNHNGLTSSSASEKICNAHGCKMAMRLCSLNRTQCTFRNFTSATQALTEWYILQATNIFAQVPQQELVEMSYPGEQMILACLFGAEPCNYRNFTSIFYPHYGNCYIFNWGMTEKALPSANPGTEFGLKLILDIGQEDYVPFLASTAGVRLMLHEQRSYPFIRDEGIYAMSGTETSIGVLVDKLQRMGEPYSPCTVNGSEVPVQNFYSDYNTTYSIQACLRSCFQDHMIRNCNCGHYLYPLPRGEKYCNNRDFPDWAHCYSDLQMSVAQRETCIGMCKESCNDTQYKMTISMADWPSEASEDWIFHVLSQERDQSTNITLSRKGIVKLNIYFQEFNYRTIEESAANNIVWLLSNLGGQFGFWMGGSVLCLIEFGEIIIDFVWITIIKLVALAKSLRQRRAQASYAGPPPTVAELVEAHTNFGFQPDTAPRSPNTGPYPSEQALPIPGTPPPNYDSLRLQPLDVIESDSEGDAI
T1 sequence (P51170 1-649): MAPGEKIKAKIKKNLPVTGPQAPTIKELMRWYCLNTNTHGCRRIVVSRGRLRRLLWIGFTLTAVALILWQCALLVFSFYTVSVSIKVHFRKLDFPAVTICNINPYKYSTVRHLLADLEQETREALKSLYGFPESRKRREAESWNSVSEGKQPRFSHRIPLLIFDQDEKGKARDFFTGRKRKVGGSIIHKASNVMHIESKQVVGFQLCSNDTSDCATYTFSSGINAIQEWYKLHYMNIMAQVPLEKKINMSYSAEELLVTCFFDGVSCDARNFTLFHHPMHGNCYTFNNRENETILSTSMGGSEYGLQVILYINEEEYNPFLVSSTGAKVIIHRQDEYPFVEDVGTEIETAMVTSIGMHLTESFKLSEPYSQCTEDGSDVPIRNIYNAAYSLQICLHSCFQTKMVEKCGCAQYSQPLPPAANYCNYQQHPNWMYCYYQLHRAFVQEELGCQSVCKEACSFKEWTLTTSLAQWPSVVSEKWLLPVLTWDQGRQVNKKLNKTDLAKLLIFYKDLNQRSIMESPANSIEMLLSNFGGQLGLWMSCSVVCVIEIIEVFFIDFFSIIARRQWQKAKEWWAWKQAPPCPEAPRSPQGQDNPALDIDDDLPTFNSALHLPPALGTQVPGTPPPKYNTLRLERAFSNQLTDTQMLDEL
As to the kind of experiment: Short circuit current (ISC) measurements in human bronchial epithelial cells, inhibition of amiloride-sensitive ISC. Format: cell-based. Particulars: Human Bronchial Epithelial cells (HBECs) at air-liquid interface, Ussing chamber, apical addition. How it is done:
Human Bronchial Epithelial cells (HBECs) (Cambrex) were cultured under air-liquid interface conditions to provide a well differentiated mucociliary phenotype.
HBECs were cultured using a modification of the method described by Gray and colleagues (Gray et al., 1996). Cells were seeded in plastic T-162 flasks and were grown in bronchial epithelial cell growth medium (BEGM; Cambrex) supplemented with bovine pituitary extract (52 μg/mL), hydrocortisone (0.5 μg/mL), human recombinant epidermal growth factor (0.5 ng/mL), epinephrine (0.5 μg/mL), transferrin (10 μg/mL), insulin (5 μg/mL), retinoic acid (0.1 μg/mL), triiodothyronine ([…]), gentamycin (50 μg/mL) and amphotericin B (50 ng/mL). Medium was changed every 48 hours until cells were 90% confluent. Cells were then passaged and seeded (8.25×10^5 cells/insert) on polycarbonate Snapwell inserts (Costar) in differentiation media containing 50% DMEM in BEGM with the same supplements as above but without triiodothyronine and a final retinoic acid concentration of 50 nM (all-trans retinoic acid). Cells were maintained submerged for the first 7 days in culture, after which time they were exposed to an apical air interface for the remainder of the culture period. At this time, media was changed to DMEM:F12 media containing 2% v/v Ultroser G for the remainder of culture. Amphotericin B was removed from all media 3 feeds prior to use in the Ussing Chambers. Cells were used between days 7 and 21 after establishment of the apical-air interface. At all stages of culture, cells were maintained at 37° C. in 5% CO2 in an air incubator.
Snapwell inserts were mounted in Vertical Diffusion Chambers (Costar) and were bathed with continuously gassed Ringer solution (5% CO2 in O2; pH 7.4) maintained at 37° C. containing (in mM): 120 NaCl, 25 NaHCO3, 3.3 KH2PO4, 0.8 K2HPO4, 1.2 CaCl2, 1.2 MgCl2, and 10 glucose. The solution osmolarity was between 280 and 300 mOsmol/kg H2O for all physiological salt solutions used. Cells were voltage clamped to 0 mV (model EVC4000; WPI). RT was measured by applying a 1- or 2-mV pulse at 30-s intervals and calculating RT by Ohm's law. Data were recorded using a PowerLab workstation (ADInstruments).
Test compounds were prepared as a 10 mM stock solution in DMSO (95%). Serial 3-fold dilutions were freshly prepared in an appropriate vehicle (distilled H2O or Ringers solution). The initial concentration was added to the apical chamber as a 1000× concentrate in 5 μL, resulting in a final 1× concentration the 5 mL volume of the Ussing chamber. Subsequent additions of compound were added in a 3.3 μL volume of the 1000× serially diluted stock solution. At the completion of the concentration-response experiment, amiloride (10 μM) was added into the apical chamber to enable the total amiloride-sensitive current to be measured. An amiloride control IC50 was established at the start of each experiment.
Results are expressed as the mean % inhibition of the amiloride-sensitive ISC. Concentration-response curves were plotted and IC50 values generated using GraphPad Prism 3.02. Cell inserts were typically run in duplicate and the IC50 calculated on the mean % inhibition data.
The compound `CCC[C@H](CNC(=O)c1nc(Cl)c(N)nc1N)N(CCCc1ccc(OC)cc1)C(=N)N` [Example 29, 3,5-Diamino-6-chloro-pyrazine-2-carboxylic acid ((R)-2-{N-[3-(4-methoxy-phenyl)-propyl]-guanidino}-pentyl)-amide trifluoroacetate] yielded an IC50 of 5 nM. In other words, the single-digit nanomolar range.

In the case of `N=C(N)N[C@@H](CCCCNC(=O)Cc1ccc(OCc2ccccc2)cc1)CNC(=O)c1nc(Cl)c(N)nc1N` [Example 27, 3,5-Diamino-6-chloro-pyrazine-2-carboxylic acid {(S)-6-[2-(4-benzyloxy-phenyl)-acetylamino]-2-guanidino-hexyl}-amide trifluoroacetate], the IC50 was found to be 200 nM.

As for `Nc1nc(N)c(C(=O)NCC2(N)CCCC2)nc1Cl` [Example 11, 3,5-Diamino-6-chloro-pyrazine-2-carboxylic acid (1-amino-cyclopentylmethyl)-amide hydrochloride], the IC50 was 5900 nM. Compound `CCC[C@@H](CNC(=O)c1nc(Cl)c(N)nc1N)NC(=N)NCCCc1ccc(OC)cc1` [Example 31, 3,5-Diamino-6-chloro-pyrazine-2-carboxylic acid ((S)-2-{N′-[3-(4-methoxy-phenyl)-propyl]-guanidino}-pentyl)-amide] yielded an IC50 of 49 nM. This IC50 is about 120-fold lower than that of the compound before.

For the compound `Nc1nc(N)c(C(=O)NC[C@@H](N)CCCCNC(=O)Cc2ccc(OCc3ccccc3)cc2)nc1Cl` [Example 12, 3,5-Diamino-6-chloro-pyrazine-2-carboxylic acid {(S)-2-amino-6-[2-(4-benzyloxy-phenyl)-acetylamino]-hexyl}-amide trifluororoacetate], the IC50 was 32 nM. `CCC[C@@H](CNC(=O)c1nc(Cl)c(N)nc1N)NCCCc1ccc(OC)cc1` [Example 26, 3,5-Diamino-6-chloro-pyrazine-2-carboxylic acid {(S)-2-[3-(4-methoxy-phenyl)-propylamino]-pentyl}-amide hydrochloride] had an IC50 of 60 nM. For `Nc1nc(N)c(C(=O)NC[C@@H](N)CCCCNC(=O)CCc2ccc(OCc3ccccc3)cc2)nc1Cl` [Example 21, 3,5-Diamino-6-chloro-pyrazine-2-carboxylic acid {(S)-2-amino-6-[3-(4-benzyloxy-phenyl)-propionylamino]-hexyl}-amide hydrochloride] the value was 64 nM. For `CCC[C@@H](CNC(=O)c1nc(Cl)c(N)nc1N)NC(=N)NCc1ccc(OC)cc1` [Example 32, 3,5-Diamino-6-chloro-pyrazine-2-carboxylic acid {(S)-2-[N′-(4-methoxy-benzyl)-guanidino]-pentyl}-amide] the value was 6 nM; for `CCC[C@H](CNC(=O)c1nc(Cl)c(N)nc1N)NC(=N)N` [Example 24, 3,5-Diamino-6-chloro-pyrazine-2-carboxylic acid ((R)-2-guanidino-pentyl)-amide trifluoroacetate], 45 nM; for `CCC[C@H](N)CNC(=O)c1nc(Cl)c(N)nc1N` [Example 4, 3,5-Diamino-6-chloro-pyrazine-2-carboxylic acid ((S)-2-amino-pentyl)-amide hydrochloride], 290 nM. Compound `Nc1nc(N)c(C(=O)NC[C@@H]2CCCN2)nc1Cl` [Example 9, 3,5-Diamino-6-chloro-pyrazine-2-carboxylic acid ((S)-1-pyrrolidin-2-ylmethyl)-amide hydrochloride] had an IC50 of 2740 nM.

As a reminder, the IC50 is the concentration that inhibits the measured activity by half. Read a high IC50 as weaker potency in that assay.
